ChEMBL document CHEMBL3120106, “Novel compounds lowering the cellular isoform of the human prion protein in cultured human cells” (Bioorg Med Chem, 2014)
Active and inactive are the calls of the source. The calls are words filed in the database; no cut-off is given here.

Experiments:
[1] = Cmax in CD-1 mouse brain at 10 mg/kg, ip administered as single dose by LC/MS/MS analysis; assay type: ADME, organism-based; parameters: dose 10 mg/kg, route intraperitoneal
[2] = Cmax in CD-1 mouse brain at 10 mg/kg, po administered via gavage as single dose by LC/MS/MS analysis; assay type: ADME, organism-based; parameters: dose 10 mg/kg, route oral
[3] = Cmax in CD-1 mouse plasma at 10 mg/kg, po administered via gavage as single dose by LC/MS/MS analysis; assay type: ADME, organism-based; parameters: dose 10 mg/kg, route oral
T98G [4] = test: cells; conditions: Homo sapiens, 48 h
Liver microsome [5] = test: Metabolic stability in human liver microsomes assessed as compound remaining at 1 uM after 60 mins by LC/MS/MS analysis; assay type: ADME; conditions: 1 h
Liver microsome [6] = test: Half life in human liver microsomes at 1 uM by LC/MS/MS analysis; assay type: ADME
[7] = Metabolic stability in mouse liver microsomes assessed as compound remaining at 1 uM after 60 mins by LC/MS/MS analysis; assay type: ADME, Microsome; conditions: 1 h
[8] = Half life in mouse liver microsomes at 1 uM by LC/MS/MS analysis; assay type: ADME, Microsome
T98G [9] = test: Cytotoxicity against human T98G cells assessed as decrease in cell viability after 2 days by calcein AM assay; assay type: cell-based; conditions: 48 h, read-out: LC50 (the source's name)
[10] = Cytotoxicity against mouse N2a-cl3 cells assessed as cell viability after 2 days by calcein AM assay; assay type: cell-based; conditions: n2a-cl3, 48 h
[11] = Decrease in PrPc expression on mouse N2a-cl3 cell surface after 2 days by ELISA; assay type: functional, cell-based

| Compound | Cmax [1] | Cmax [2] | Cmax [3] | EC50 (T98G [4]) | Stability (Liver microsome [5]) | t1/2 (Liver microsome [6]) | Stability [7] | t1/2 [8] | CC50 (T98G [9]) | Activity [10] | inhibition [11] |
| --- | --- | --- | --- | --- | --- | --- | --- | --- | --- | --- | --- |
| O=C(Nc1ccc(I)cn1)c1cccc(F)c1 | ≤ 16200 nM | < 100 nM | < 100 nM | 450 nM | – | – | – | – | – | – | – |
| CCOc1ccccc1C1C(C#N)=C(N)Oc2cc(N(C)C)ccc21 (centres undefined) | ≤ 16200 nM | < 100 nM | < 100 nM | – | 1.3% | 9.7 min | 0.1% | 1.9 min | – | – | – |
| O=C(Cc1ccc(Br)cc1)NCc1ccccc1 | – | – | – | 2330 nM | – | – | – | – | > 10000 nM | – | – |
| Cc1nc2sccn2c1-c1csc(Nc2ccc(N(C)C)nc2)n1 | ≤ 16200 nM | < 100 nM | < 100 nM | 220 nM | – | – | – | – | – | – | – |
| CCOC(=O)c1[nH]c2c(c1C)C(=O)CC(c1ccccc1Cl)C2 (centres undefined) | ≤ 16200 nM | < 100 nM | < 100 nM | 450 nM | – | – | – | – | – | – | – |
| O=C(Cc1ccc(Cl)cc1)NCc1ccccc1 | – | – | – | > 10000 nM | – | – | – | – | > 10000 nM | – | – |
| O=C(Nc1ccncc1)C1CCCN1S(=O)(=O)c1ccc2ccccc2c1 (centres undefined) | ≤ 16200 nM | < 100 nM | < 100 nM | 1520 nM | – | – | – | – | – | – | – |
| CCOc1ccc2c(c1)C(C)=CC(C)(C)N2S(=O)(=O)c1ccc(C)cc1 | ≤ 16200 nM | < 100 nM | < 100 nM | 690 nM | – | – | – | – | – | – | – |
| COc1cc(OC)cc(C(=O)Nc2ccc(I)cn2)c1 | ≤ 16200 nM | < 100 nM | < 100 nM | 1310 nM | – | – | – | – | – | Non-toxic | Active |
| CN(C)c1ccc2c(c1)OC(N)=C(C#N)C2c1cccc(F)c1 (centres undefined) | ≤ 16200 nM | < 100 nM | < 100 nM | 30 nM | – | – | – | – | – | – | – |
| COc1ccc(Cl)cc1C(=O)N1CC(=O)Nc2ccccc21 | ≤ 16200 nM | < 100 nM | < 100 nM | 650 nM | – | – | – | – | – | – | – |
| CCOc1ccc(Nc2nc(-c3c(C)nc4sccn34)cs2)cc1 | ≤ 16200 nM | < 100 nM | < 100 nM | 30 nM | 1.5% | 9.6 min | 0.5% | 4.5 min | – | – | – |
| CN(C)c1ccc2c(c1)OC(N)=C(C#N)C2c1cccs1 (centres undefined) | – | – | – | 220 nM | – | – | – | – | – | – | – |
| NC(=O)c1ccccc1NC(=O)c1cccnc1N1CCCCC1 | ≤ 16200 nM | < 100 nM | < 100 nM | 1020 nM | 8.3% | 16.7 min | 0% | 2.8 min | – | Non-toxic | Active |
| CC1=CC(C)(C)N(S(=O)(=O)c2ccc(C)cc2)c2cc(C)ccc21 | ≤ 16200 nM | < 100 nM | < 100 nM | 3770 nM | – | – | – | – | – | – | – |
| COc1cccc(N2CCN(C(=O)c3cc(C)ccc3OC)CC2)c1 | ≤ 16200 nM | < 100 nM | < 100 nM | 270 nM | 1% | 4.5 min | 0% | 1.6 min | – | – | – |
| COc1cc(C(=O)c2cc(Cl)ccc2N)cc(OC)c1OC | ≤ 16200 nM | < 100 nM | < 100 nM | 90 nM | – | – | – | – | – | – | – |
| COc1ccc(CC(=O)NCc2ccccc2)cc1 | – | – | – | 3130 nM | – | – | – | – | > 10000 nM | – | – |

| Compound | Cmax [1] | Cmax [2] | Cmax [3] | EC50 (T98G [4]) | Stability (Liver microsome [5]) | t1/2 (Liver microsome [6]) | Stability [7] | t1/2 [8] | CC50 (T98G [9]) | Activity [10] | inhibition [11] |
| --- | --- | --- | --- | --- | --- | --- | --- | --- | --- | --- | --- |
| CN(C)c1ccc2c(c1)OC(N)=C(C#N)C2c1ccccc1 (centres undefined) | ≤ 16200 nM | < 100 nM | < 100 nM | – | – | – | – | – | – | – | – |
| COc1ccc(Cl)cc1C(=O)N1CCN(c2cccc(Cl)c2)CC1 | ≤ 16200 nM | < 100 nM | < 100 nM | 170 nM | 0.1% | 6 min | 0.1% | 3 min | – | – | – |
| O=C(Cc1ccc(-c2ccccc2)cc1)NCc1ccccc1 | ≤ 16200 nM | < 100 nM | < 100 nM | 440 nM | 4.6% | 10.3 min | 5.8% | 18.5 min | > 10000 nM | – | – |
| COC(=O)c1[nH]c2c(c1C)C(=O)CC(c1cccs1)C2 (centres undefined) | ≤ 16200 nM | < 100 nM | < 100 nM | 410 nM | – | – | – | – | – | – | – |
| N#Cc1c(NC(=O)CCc2cccs2)sc2c1CCCC2 | ≤ 16200 nM | < 100 nM | < 100 nM | 150 nM | – | – | – | – | – | – | – |
| COc1ccccc1C(=O)N1CCN(c2ccccc2OC)CC1 | ≤ 16200 nM | < 100 nM | < 100 nM | 3240 nM | – | – | – | – | – | – | – |
| Cc1cc(C)c(S(=O)(=O)NCc2ccncc2)c(C)c1 | ≤ 16200 nM | < 100 nM | < 100 nM | 4130 nM | – | – | – | – | – | – | – |
| Cc1ccn2c(-c3csc(Nc4ccc(N(C)C)cc4)n3)c(C)nc2c1 | – | – | – | 110 nM | – | – | – | – | – | – | – |
| CCc1nnc(NC(=O)c2ccoc2COc2ccccc2)s1 | ≤ 16200 nM | < 100 nM | < 100 nM | 2240 nM | – | – | – | – | – | – | – |
| CCN(CC)c1ccc2c(c1)OC(N)=C(C#N)C2c1ccccc1 (centres undefined) | ≤ 16200 nM | < 100 nM | < 100 nM | 170 nM | – | – | – | – | – | – | – |
| Cc1c(C(=O)OC(C)C)[nH]c2c1C(=O)CC(c1cccs1)C2 (centres undefined) | ≤ 16200 nM | < 100 nM | < 100 nM | 240 nM | 1.6% | 9.9 min | 0.1% | 3.2 min | – | – | – |
| CCOC(=O)c1[nH]c2c(c1C)C(=O)CC(c1ccccc1)C2 (centres undefined) | ≤ 16200 nM | < 100 nM | < 100 nM | 110 nM | – | – | – | – | – | – | – |
| COc1ccc(Cl)cc1NS(=O)(=O)c1ccc(N2CCCC2=O)cc1 | ≤ 16200 nM | < 100 nM | < 100 nM | 510 nM | – | – | – | – | – | – | – |
| Cc1nc2ncccn2c1-c1csc(Nc2ccc(Cl)cc2)n1 | – | – | – | 2440 nM | – | – | – | – | – | – | – |
| CCOC(=O)c1[nH]c(C)c(C(=O)c2ccc(C)cc2)c1C | ≤ 16200 nM | < 100 nM | < 100 nM | 530 nM | – | – | – | – | – | – | – |
| COc1ccc(S(=O)(=O)N2CCOc3ccccc32)cc1 | ≤ 16200 nM | < 100 nM | < 100 nM | 1320 nM | 0% | 2 min | 0% | 0.7 min | – | – | – |
| CCOC(=O)c1[nH]c2c(c1C)C(=O)CC(c1ccco1)C2 (centres undefined) | – | – | – | 680 nM | – | – | – | – | – | Non-toxic | Active |
